What was measured:
Format in all cases: biochemical
FGFR4 = FGFR4 (Homo sapiens (Human), UniProt P22455); test: HTRF KinEASE-TK kinase assay, FGFR4; conditions: for remaining activity at 1 µM: read-out: % FGFR4 Remaining activity vs DMSO (1 μM, 3 h); for remaining activity at 10 µM: read-out: % FGFR4 Remaining activity vs DMSO (10 μM, 3 h); for IC50: dose response
Method: (§1) Kinase activity was monitored using a HTRF® KinEASE-TK kit from Cisbio (62TK0PEC). […] FGFR-4 was purchased from Promega. 0.333 ng/ul FGFR4 (5.12 nM) was preincubated in the absence or presence of inhibitor at room temperature for 3 hours. Reaction with substrate was then initiated by adding biotinylated substrate and ATP. […] The reaction was terminated by adding 31.25 nM SA-XL665 and 100 fold diluted europium labelled antibody (Eu-Ab), diluted in 1× detection buffer that contained EDTA. After 60 min of incubation, the fluorescence emission was measured at 620 nm and 665 nm. The ratio of Em 665 nm to Em 620 nm was proportional to the amount of substrate phosphorylated by the kinase.

EGFR = EGFR (Homo sapiens (Human), UniProt P00533); test: HTRF KinEASE-TK kinase assay, EGFR; conditions: 3 h preincubation; for remaining activity at 1 µM: 1 μM compound, read-out: % EGFR Remaining activity vs DMSO (1 μM, 3 h); for remaining activity at 10 µM: 10 μM compound, read-out: % EGFR Remaining activity vs DMSO (10 μM, 3 h); for IC50: dose response, read-out: EGFR Inhibition IC50
Method: Kinase activity was monitored using a HTRF® KinEASE-TK kit from Cisbio (62TK0PEC). The buffer used was 1× kinase buffer supplemented with 2 mM MnCl2, 5 mM MgCl2, 1 mM TCEP and 100× diluted Supplementary Enzyme Buffer. EGFR was purchased from Promega. […] Reaction with substrate was then initiated by adding biotinylated substrate and ATP. […] After 60 min of incubation, the fluorescence emission was measured at 620 nm and 665 nm. The ratio of Em 665 nm to Em 620 nm was proportional to the amount of substrate phosphorylated by the kinase.
For initial screening, enzymes were pre incubated with compounds at 2 different concentrations (1 and 10 uM final) and 0.5% DMSO.

JAK3 = JAK3 (Homo sapiens (Human), UniProt P52333); test: HTRF KinEASE-TK kinase assay, JAK3; conditions: for remaining activity at 1 µM: read-out: % JAK3 Remaining activity vs DMSO (1 μM, 3 h); for remaining activity at 10 µM: read-out: % JAK3 Remaining activity vs DMSO (10 μM, 3 h)
Method: as §1, with “JAK-3” for “FGFR-4”, “0.0133” for “0.333”, “JAK3 (0.21” for “FGFR4 (5.12”

RIPK2 = RIPK2 (Homo sapiens (Human), UniProt O43353); test: In vitro RIPK2 inhibition; conditions: for remaining activity at 1 µM: read-out: % RIPK2 Remaining activity vs DMSO (1 μM, 3 h); for remaining activity at 10 µM: read-out: % RIPK2 Remaining activity vs DMSO (10 μM, 3 h)
BMX = BMX (Homo sapiens (Human), UniProt P51813); test: HTRF KinEASE-TK kinase assay, BMX; conditions: 3 h preincubation; for remaining activity at 1 µM: 1 uM compound; for remaining activity at 10 µM: 10 uM compound
Method: as §1, with “BMX” for “FGFR-4”, “BMX (3.03” for “FGFR4 (5.12”, “The reaction” for “Reaction”, “Reaction” for “The reaction”

BTK = BTK (Homo sapiens (Human), UniProt Q06187); test: HTRF KinEASE-TK kinase assay, BTK; conditions: 3 h preincubation; for remaining activity at 1 µM: 1 μM compound, read-out: % BTK Remaining activity vs DMSO (1 μM, 3 h); for remaining activity at 10 µM: 10 μM compound, read-out: % BTK Remaining activity vs DMSO (10 μM, 3 h)
Method: Kinase activity was monitored using a HTRF® KinEASE-TK kit from Cisbio (62TK0PEC). For BTK, the 1× kinase buffer was supplemented with 10 mM MnCl2, 5 mM MgCl2, 1 uM ATPγS, 1 mM TCEP and 100 fold diluted Supplementary Enzyme Buffer. BTK was purchased from Promega. […] Reaction with substrate was then initiated by adding biotinylated substrate and ATP and the reaction was allowed to proceed for 45 min. […] After 60 min of incubation, the fluorescence emission was measured at 620 nm and 665 nm. The ratio of Em 665 nm to Em 620 nm was proportional to the amount of substrate phosphorylated by the kinase.

Chain of FGFR4 (P22455 22-802): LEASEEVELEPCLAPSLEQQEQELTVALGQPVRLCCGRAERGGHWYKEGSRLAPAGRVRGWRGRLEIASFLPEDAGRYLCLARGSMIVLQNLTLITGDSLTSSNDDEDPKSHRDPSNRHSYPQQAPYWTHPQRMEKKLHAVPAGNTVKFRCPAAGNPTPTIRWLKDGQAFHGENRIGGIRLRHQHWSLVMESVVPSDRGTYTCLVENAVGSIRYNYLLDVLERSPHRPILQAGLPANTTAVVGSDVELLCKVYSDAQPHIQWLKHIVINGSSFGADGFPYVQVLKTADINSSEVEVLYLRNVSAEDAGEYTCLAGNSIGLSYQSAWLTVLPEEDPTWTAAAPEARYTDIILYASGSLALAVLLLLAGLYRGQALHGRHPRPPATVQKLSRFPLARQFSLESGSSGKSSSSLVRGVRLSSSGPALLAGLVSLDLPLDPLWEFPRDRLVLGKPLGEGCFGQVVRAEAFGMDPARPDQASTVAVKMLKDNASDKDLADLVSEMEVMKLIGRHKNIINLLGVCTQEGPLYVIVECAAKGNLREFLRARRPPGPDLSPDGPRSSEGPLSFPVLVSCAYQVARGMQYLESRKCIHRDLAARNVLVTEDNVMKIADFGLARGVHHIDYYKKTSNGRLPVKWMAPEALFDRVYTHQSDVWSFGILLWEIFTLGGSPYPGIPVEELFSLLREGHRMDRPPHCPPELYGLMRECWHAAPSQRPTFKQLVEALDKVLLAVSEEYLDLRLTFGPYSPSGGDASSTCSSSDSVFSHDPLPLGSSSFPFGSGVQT
Chain of EGFR (P00533 25-1210): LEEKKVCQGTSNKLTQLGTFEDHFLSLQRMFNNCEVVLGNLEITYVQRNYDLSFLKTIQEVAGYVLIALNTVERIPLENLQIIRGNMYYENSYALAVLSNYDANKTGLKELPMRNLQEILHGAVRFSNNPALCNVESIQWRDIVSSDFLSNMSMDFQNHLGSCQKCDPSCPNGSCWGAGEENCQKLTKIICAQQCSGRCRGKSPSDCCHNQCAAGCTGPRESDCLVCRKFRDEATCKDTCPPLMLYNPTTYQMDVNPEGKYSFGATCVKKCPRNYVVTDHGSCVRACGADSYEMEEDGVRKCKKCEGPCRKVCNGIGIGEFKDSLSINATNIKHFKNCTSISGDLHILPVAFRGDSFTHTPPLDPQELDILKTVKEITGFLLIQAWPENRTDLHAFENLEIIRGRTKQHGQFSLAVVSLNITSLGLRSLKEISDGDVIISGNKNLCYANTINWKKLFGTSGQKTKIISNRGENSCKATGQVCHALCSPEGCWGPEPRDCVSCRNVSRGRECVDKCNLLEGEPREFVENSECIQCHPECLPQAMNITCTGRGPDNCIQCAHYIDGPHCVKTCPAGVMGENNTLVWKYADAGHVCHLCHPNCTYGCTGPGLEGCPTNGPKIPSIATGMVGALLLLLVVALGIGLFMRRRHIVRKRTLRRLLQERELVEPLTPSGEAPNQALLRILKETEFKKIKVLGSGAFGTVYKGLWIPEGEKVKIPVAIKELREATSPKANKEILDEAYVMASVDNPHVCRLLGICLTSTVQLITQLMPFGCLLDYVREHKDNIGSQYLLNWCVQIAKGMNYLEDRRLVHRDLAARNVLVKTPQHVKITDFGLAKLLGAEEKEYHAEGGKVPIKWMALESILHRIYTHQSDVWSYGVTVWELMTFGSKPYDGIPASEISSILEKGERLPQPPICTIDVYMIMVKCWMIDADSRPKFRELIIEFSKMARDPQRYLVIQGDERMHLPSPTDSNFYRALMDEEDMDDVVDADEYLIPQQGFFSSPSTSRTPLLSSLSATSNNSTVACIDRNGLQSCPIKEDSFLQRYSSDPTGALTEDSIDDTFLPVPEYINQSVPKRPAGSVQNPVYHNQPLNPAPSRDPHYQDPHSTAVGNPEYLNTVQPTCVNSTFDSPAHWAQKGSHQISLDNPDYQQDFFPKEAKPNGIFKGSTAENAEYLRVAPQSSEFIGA
Chain of RIPK2 (O43353 whole entry, species assumed): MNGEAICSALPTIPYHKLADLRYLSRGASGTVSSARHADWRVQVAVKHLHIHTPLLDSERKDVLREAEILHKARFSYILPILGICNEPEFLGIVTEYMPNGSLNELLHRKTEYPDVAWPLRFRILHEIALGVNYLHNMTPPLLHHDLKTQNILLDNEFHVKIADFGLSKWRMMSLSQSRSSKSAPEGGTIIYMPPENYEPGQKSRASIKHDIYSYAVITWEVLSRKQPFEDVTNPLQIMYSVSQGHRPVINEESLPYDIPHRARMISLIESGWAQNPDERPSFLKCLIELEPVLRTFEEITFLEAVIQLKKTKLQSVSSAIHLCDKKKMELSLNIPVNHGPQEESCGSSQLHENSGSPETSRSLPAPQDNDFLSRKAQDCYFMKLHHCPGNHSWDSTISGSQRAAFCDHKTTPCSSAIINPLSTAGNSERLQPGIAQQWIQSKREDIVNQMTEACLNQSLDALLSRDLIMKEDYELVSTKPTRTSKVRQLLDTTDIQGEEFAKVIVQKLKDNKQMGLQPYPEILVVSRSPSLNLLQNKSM
Chain of JAK3 (P52333 781-1124): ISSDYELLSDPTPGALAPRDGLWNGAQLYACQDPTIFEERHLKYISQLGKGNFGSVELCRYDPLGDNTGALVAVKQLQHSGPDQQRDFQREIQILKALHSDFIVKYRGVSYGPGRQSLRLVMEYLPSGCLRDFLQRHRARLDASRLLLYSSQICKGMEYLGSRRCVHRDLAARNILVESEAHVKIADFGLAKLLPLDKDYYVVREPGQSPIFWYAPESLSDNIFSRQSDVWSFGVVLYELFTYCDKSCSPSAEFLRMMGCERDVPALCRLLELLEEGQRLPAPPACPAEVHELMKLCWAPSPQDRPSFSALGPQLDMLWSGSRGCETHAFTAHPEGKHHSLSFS
Chain of BMX (P51813 whole entry): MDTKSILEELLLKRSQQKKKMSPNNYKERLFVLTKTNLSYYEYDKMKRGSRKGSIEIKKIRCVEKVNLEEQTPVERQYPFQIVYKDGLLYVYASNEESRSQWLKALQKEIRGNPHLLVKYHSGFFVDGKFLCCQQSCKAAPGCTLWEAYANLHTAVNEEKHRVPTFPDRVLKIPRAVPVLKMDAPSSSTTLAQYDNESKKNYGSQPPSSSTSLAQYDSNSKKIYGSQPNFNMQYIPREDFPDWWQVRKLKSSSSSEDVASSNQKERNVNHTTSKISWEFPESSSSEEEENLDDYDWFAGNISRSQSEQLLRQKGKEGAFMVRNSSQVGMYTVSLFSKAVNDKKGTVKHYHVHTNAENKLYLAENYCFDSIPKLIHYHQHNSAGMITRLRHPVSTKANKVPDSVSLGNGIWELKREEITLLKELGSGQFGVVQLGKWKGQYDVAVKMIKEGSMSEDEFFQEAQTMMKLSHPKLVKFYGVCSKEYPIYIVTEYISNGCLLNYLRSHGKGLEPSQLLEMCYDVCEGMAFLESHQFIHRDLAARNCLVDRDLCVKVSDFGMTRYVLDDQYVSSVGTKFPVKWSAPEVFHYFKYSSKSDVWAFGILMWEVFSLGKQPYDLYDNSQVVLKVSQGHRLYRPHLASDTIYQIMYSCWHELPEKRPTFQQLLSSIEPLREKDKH
Chain of BTK (Q06187 whole entry): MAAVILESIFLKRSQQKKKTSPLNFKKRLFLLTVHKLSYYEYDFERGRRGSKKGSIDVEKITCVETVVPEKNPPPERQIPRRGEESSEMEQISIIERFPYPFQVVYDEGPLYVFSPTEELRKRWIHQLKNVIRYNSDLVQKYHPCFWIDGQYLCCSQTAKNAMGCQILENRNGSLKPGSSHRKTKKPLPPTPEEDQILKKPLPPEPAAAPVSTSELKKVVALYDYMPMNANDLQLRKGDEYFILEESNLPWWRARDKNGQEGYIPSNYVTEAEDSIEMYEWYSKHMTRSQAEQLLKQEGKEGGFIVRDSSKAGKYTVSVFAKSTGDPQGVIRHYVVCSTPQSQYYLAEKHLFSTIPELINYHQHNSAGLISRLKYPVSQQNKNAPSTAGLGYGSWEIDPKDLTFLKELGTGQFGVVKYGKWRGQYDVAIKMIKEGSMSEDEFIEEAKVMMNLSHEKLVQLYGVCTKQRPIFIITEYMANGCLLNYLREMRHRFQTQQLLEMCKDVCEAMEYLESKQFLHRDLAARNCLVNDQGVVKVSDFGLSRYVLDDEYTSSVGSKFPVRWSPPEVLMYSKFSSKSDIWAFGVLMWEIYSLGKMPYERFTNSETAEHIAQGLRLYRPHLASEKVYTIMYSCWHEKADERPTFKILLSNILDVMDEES

Structure (SMILES)	remaining activity at 1 µM (FGFR4)	remaining activity at 10 µM (FGFR4)	remaining activity at 1 µM (EGFR)	remaining activity at 10 µM (EGFR)	remaining activity at 1 µM (JAK3)	remaining activity at 10 µM (JAK3)	remaining activity at 1 µM (RIPK2)	remaining activity at 10 µM (RIPK2)	remaining activity at 1 µM (BMX)	remaining activity at 10 µM (BMX)	remaining activity at 1 µM (BTK)	remaining activity at 10 µM (BTK)	IC50 (EGFR)	IC50 (FGFR4)	IC50 (JAK3; dose response)	IC50 (BTK; dose response, read-out: BTK Inhibition IC50)
CN(C)S(=O)(=O)c1c(F)c(F)c(F)c(F)c1C(=O)N1CCC[C@@H](n2nc(-c3ccc(Oc4ccccc4)cc3)c3c(N)ncnc32)C1 [Compound I-31, (R)-2-(3-(4-amino-3-(4-phenoxyphenyl)-1H-pyrazolo[3,4-d]pyrimidin-1-yl)piperidine-1-carbonyl)-3,4,5,6-tetrafluoro-N,N-dimethylbenzenesulfonamide]	50 to 90%	> 90%	> 90%	> 90%	> 90%	> 90%	50 to 90%	> 90%	< 50%	< 50%	–	–	–	–	–	–
CS(=O)(=O)c1c(F)c(F)c(F)c(F)c1C(=O)NCCNc1ncnc2[nH]ccc12 [Compound I-45, N-(2-((7H-pyrrolo[2,3-d]pyrimidin-4-yl)amino)ethyl)-2,3,4,5-tetrafluoro-6-(methylsulfonyl)benzamide]	> 90%	< 50%	> 90%	< 50%	< 50%	< 50%	< 50%	50 to 90%	< 50%	< 50%	< 50%	< 50%	–	–	–	–
CN(CCn1nc(-c2ccc(Oc3ccccc3)cc2)c2c(N)ncnc21)c1c(F)c(F)c(F)c(F)c1S(C)(=O)=O [Compound I-43, 1-(2-(methyl(2,3,4,5-tetrafluoro-6-(methylsulfonyl)phenyl)amino)ethyl)-3-(4-phenoxyphenyl)-1H-pyrazolo[3,4-d]pyrimidin-4-amine]	> 90%	> 90%	> 90%	50 to 90%	> 90%	> 90%	–	–	50 to 90%	> 90%	> 90%	> 90%	–	–	–	–
CN(C)S(=O)(=O)c1c(F)c(F)c(F)c(F)c1C(=O)N1CC(n2nc(-c3ccc(Oc4ccccc4)cc3)c3c(N)ncnc32)C1 [Compound I-29, 2-(3-(4-amino-3-(4-phenoxyphenyl)-1H-pyrazolo[3,4-d]pyrimidin-1-yl)azetidine-1-carbonyl)-3,4,5,6-tetrafluoro-N,N-dimethylbenzenesulfonamide]	50 to 90%	> 90%	< 50%	< 50%	< 50%	< 50%	50 to 90%	50 to 90%	< 50%	< 50%	< 50%	< 50%	–	–	–	–
O=S(=O)(Nc1cc2c(Nc3ccc(F)c(Cl)c3)ncnc2cc1O[C@H]1CCOC1)c1c(F)c(F)c(F)c(F)c1C(F)(F)F [Compound I-1, (S)—N-(4-((3-chloro-4-fluorophenyl)amino)-7-((tetrahydrofuran-3-yl)oxy)quinazolin-6-yl)-2,3,4,5-tetrafluoro-6-(trifluoromethyl)benzenesulfonamide]	> 90%	> 90%	< 50%	< 50%	50 to 90%	< 50%	–	–	50 to 90%	50 to 90%	50 to 90%	< 50%	< 1000 nM	–	–	–
COCCOc1ccc(Nc2ncc(F)c(Nc3cccc(NS(=O)(=O)c4c(F)c(F)c(F)c(F)c4CF)c3)n2)cc1 [Compound I-58, 2,3,4,5-tetrafluoro-N-(3-((5-fluoro-2-((4-(2-methoxyethoxy)phenyl)amino)pyrimidin-4-yl)amino)phenyl)-6-(fluoromethyl)benzenesulfonamide]	< 50%	< 50%	> 90%	> 90%	> 90%	< 50%	–	–	< 50%	< 50%	< 50%	< 50%	–	< 1000 nM	–	–
CS(=O)(=O)c1c(F)c(F)c(F)c(F)c1C(=O)N1CC(n2nc(-c3ccc(Oc4ccccc4)cc3)c3c(N)ncnc32)C1 [Compound I-27, (3-(4-amino-3-(4-phenoxyphenyl)-1H-pyrazolo[3,4-d]pyrimidin-1-yl)azetidin-1-yl)(2,3,4,5-tetrafluoro-6-(methylsulfonyl)phenyl)methanone]	50 to 90%	< 50%	< 50%	< 50%	< 50%	< 50%	50 to 90%	> 90%	< 50%	< 50%	< 50%	< 50%	< 1000 nM	–	< 1000 nM	–
COCCOc1ccc(Nc2ncc(F)c(Nc3cccc(NC(=O)c4c(F)c(F)c(F)c(F)c4[S@+](C)[O-])c3)n2)cc1 (racemic) [Compound I-62, 2,3,4,5-tetrafluoro-N-(3-((5-fluoro-2-((4-(2-methoxyethoxy)phenyl)amino)pyrimidin-4-yl)amino)phenyl)-6-(methylsulfinyl)benzamide]	–	–	–	–	–	–	–	–	–	–	–	–	–	< 1000 nM	–	< 1000 nM
CS(=O)(=O)c1c(F)c(F)c(F)c(F)c1CNCCn1nc(-c2ccc(Oc3ccccc3)cc2)c2c(N)ncnc21 [Compound I-44, 3-(4-phenoxyphenyl)-1-(2-((2,3,4,5-tetrafluoro-6-(methylsulfonyl)benzyl)amino)ethyl)-1H-pyrazolo[3,4-d]pyrimidin-4-amine]	> 90%	< 50%	> 90%	< 50%	> 90%	< 50%	–	–	< 50%	< 50%	< 50%	< 50%	–	–	–	–
